Reference: PubChem BioAssay (NCI)
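1) Cells in 96-well plates. 2) Compound, 48 h, 5 concentrations. 3) Linear interpolation between surrounding doses. 4) Unreached endpoint = highest concentration. The concentration for full growth arrest is given as TGI.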

Tests used:
Test in all cases: NCI anticancer screen, dose series, 48 h
MDA-MB-231 breast = test system: MDA-MB-231 breast
UACC-62 melanoma = test system: UACC-62 melanoma
HS 578T breast = test system: HS 578T breast
OVCAR-5 ovarian = test system: OVCAR-5 ovarian
NCI-H460 lung = test system: NCI-H460 lung
SW-620 colon = test system: SW-620 colon
ACHN renal = test system: ACHN renal
TK-10 renal = test system: TK-10 renal
HL-60(TB) leukemia = test system: HL-60(TB) leukemia
PC-3 prostate = test system: PC-3 prostate
T-47D breast = test system: T-47D breast
HOP-92 NSCLC = test system: HOP-92 NSCLC
SF-539 CNS = test system: SF-539 CNS
EKVX NSCLC = test system: EKVX NSCLC
SR leukemia = test system: SR leukemia
SF-295 CNS = test system: SF-295 CNS
SN12C renal = test system: SN12C renal
OVCAR-8 ovarian = test system: OVCAR-8 ovarian
A498 renal = test system: A498 renal
SF-268 CNS = test system: SF-268 CNS
OVCAR-4 ovarian = test system: OVCAR-4 ovarian
MALME-3M melanoma = test system: MALME-3M melanoma
U251 CNS = test system: U251 CNS
SK-MEL-5 melanoma = test system: SK-MEL-5 melanoma
CCRF-CEM leukemia = test system: CCRF-CEM leukemia
HOP-62 NSCLC = test system: HOP-62 NSCLC
HCT-116 colon = test system: HCT-116 colon
NCI-H23 lung = test system: NCI-H23 lung
COLO 205 colon = test system: COLO 205 colon
KM12 colon = test system: KM12 colon
HT29 colon = test system: HT29 colon
LOX IMVI melanoma = test system: LOX IMVI melanoma
K-562 leukemia = test system: K-562 leukemia
SNB-19 CNS = test system: SNB-19 CNS
NCI/ADR-RES ovarian = test system: NCI/ADR-RES ovarian
MOLT-4 leukemia = test system: MOLT-4 leukemia
RPMI-8226 leukemia = test system: RPMI-8226 leukemia
CAKI-1 renal = test system: CAKI-1 renal
UACC-257 melanoma = test system: UACC-257 melanoma
SNB-75 CNS = test system: SNB-75 CNS
NCI-H226 lung = test system: NCI-H226 lung
SK-OV-3 ovarian = test system: SK-OV-3 ovarian
A549 NSCLC = test system: A549 NSCLC
SK-MEL-28 melanoma = test system: SK-MEL-28 melanoma
MDA-MB-435 = test system: MDA-MB-435
786-0 renal = test system: 786-0 renal
M14 melanoma = test system: M14 melanoma
OVCAR-3 ovarian = test system: OVCAR-3 ovarian
HCT-15 colon = test system: HCT-15 colon
SK-MEL-2 melanoma = test system: SK-MEL-2 melanoma
HCC-2998 colon = test system: HCC-2998 colon
MDA-N = test system: MDA-N
DU-145 prostate = test system: DU-145 prostate
UO-31 renal = test system: UO-31 renal
NCI-H522 lung = test system: NCI-H522 lung
RXF 393 renal = test system: RXF 393 renal
MCF7 breast = test system: MCF7 breast
IGROV1 ovarian = test system: IGROV1 ovarian

C/C(=N\NC(N)=S)c1ccc2c(c1)Sc1ccccc1O2
TGI (MDA-MB-231 breast): > 100 µM
TGI (UACC-62 melanoma): 12.3 µM
TGI (HS 578T breast): > 100 µM
TGI (OVCAR-5 ovarian): > 100 µM
TGI (NCI-H460 lung): 11.8 µM
TGI (SW-620 colon): > 100 µM
TGI (ACHN renal): 43.7 µM
TGI (TK-10 renal): 30.7 µM
TGI (HL-60(TB) leukemia): > 100 µM
TGI (PC-3 prostate): 28.8 µM
TGI (T-47D breast): > 100 µM
TGI (HOP-92 NSCLC): 28 µM
TGI (SF-539 CNS): 4.79 µM
TGI (EKVX NSCLC): 13.6 µM
TGI (SR leukemia): > 100 µM
TGI (SF-295 CNS): > 100 µM
TGI (SN12C renal): > 100 µM
TGI (OVCAR-8 ovarian): 7.16 µM
TGI (A498 renal): 8.63 µM
TGI (SF-268 CNS): 8.36 µM
TGI (OVCAR-4 ovarian): 57.1 µM
TGI (MALME-3M melanoma): > 100 µM
TGI (U251 CNS): 11.7 µM
TGI (SK-MEL-5 melanoma): 6.83 µM
TGI (CCRF-CEM leukemia): > 100 µM
TGI (HOP-62 NSCLC): 29 µM
TGI (HCT-116 colon): 24.3 µM
TGI (NCI-H23 lung): 79.1 µM
TGI (COLO 205 colon): 7.28 µM
TGI (KM12 colon): > 100 µM
TGI (HT29 colon): 5.83 µM
TGI (LOX IMVI melanoma): 13.1 µM
TGI (K-562 leukemia): > 100 µM
TGI (SNB-19 CNS): > 100 µM
TGI (NCI/ADR-RES ovarian): 10.6 µM
TGI (MOLT-4 leukemia): > 100 µM
TGI (RPMI-8226 leukemia): 16.4 µM
TGI (CAKI-1 renal): 4.37 µM
TGI (UACC-257 melanoma): > 100 µM
TGI (SNB-75 CNS): 7.21 µM
TGI (NCI-H226 lung): > 100 µM
TGI (SK-OV-3 ovarian): 39.5 µM
TGI (A549 NSCLC): 13.5 µM
TGI (SK-MEL-28 melanoma): 69.9 µM
TGI (MDA-MB-435): 0.95 µM
TGI (786-0 renal): 25.7 µM
TGI (M14 melanoma): > 100 µM
TGI (OVCAR-3 ovarian): 4.52 µM
TGI (HCT-15 colon): 4.63 µM
TGI (SK-MEL-2 melanoma): 6.99 µM
TGI (HCC-2998 colon): 4.65 µM
TGI (MDA-N): 2.31 µM
TGI (DU-145 prostate): > 100 µM
TGI (UO-31 renal): 28.3 µM

C=CCNC(=S)N/C=C(\C#N)C(N)=O
TGI (MDA-MB-231 breast): > 100 µM
TGI (UACC-62 melanoma): > 100 µM
TGI (HS 578T breast): > 100 µM
TGI (OVCAR-5 ovarian): > 100 µM
TGI (NCI-H460 lung): > 100 µM
TGI (SW-620 colon): > 100 µM
TGI (ACHN renal): > 100 µM
TGI (HL-60(TB) leukemia): > 100 µM
TGI (PC-3 prostate): > 100 µM
TGI (NCI-H522 lung): > 100 µM
TGI (T-47D breast): > 100 µM
TGI (SF-539 CNS): > 100 µM
TGI (EKVX NSCLC): > 100 µM
TGI (SR leukemia): > 100 µM
TGI (SF-295 CNS): > 100 µM
TGI (SN12C renal): > 100 µM
TGI (OVCAR-8 ovarian): > 100 µM
TGI (A498 renal): > 100 µM
TGI (SF-268 CNS): > 100 µM
TGI (OVCAR-4 ovarian): > 100 µM
TGI (MALME-3M melanoma): > 100 µM
TGI (U251 CNS): > 100 µM
TGI (SK-MEL-5 melanoma): > 100 µM
TGI (CCRF-CEM leukemia): > 100 µM
TGI (HOP-62 NSCLC): > 100 µM
TGI (HCT-116 colon): > 100 µM
TGI (RXF 393 renal): > 100 µM
TGI (NCI-H23 lung): > 100 µM
TGI (COLO 205 colon): > 100 µM
TGI (KM12 colon): > 100 µM
TGI (HT29 colon): > 100 µM
TGI (LOX IMVI melanoma): > 100 µM
TGI (K-562 leukemia): > 100 µM
TGI (SNB-19 CNS): > 100 µM
TGI (NCI/ADR-RES ovarian): > 100 µM
TGI (MOLT-4 leukemia): > 100 µM
TGI (RPMI-8226 leukemia): > 100 µM
TGI (CAKI-1 renal): > 100 µM
TGI (MCF7 breast): > 100 µM
TGI (UACC-257 melanoma): > 100 µM
TGI (SNB-75 CNS): > 100 µM
TGI (NCI-H226 lung): > 100 µM
TGI (SK-OV-3 ovarian): > 100 µM
TGI (A549 NSCLC): > 100 µM
TGI (SK-MEL-28 melanoma): > 100 µM
TGI (MDA-MB-435): > 100 µM
TGI (786-0 renal): > 100 µM
TGI (M14 melanoma): > 100 µM
TGI (OVCAR-3 ovarian): > 100 µM
TGI (HCT-15 colon): > 100 µM
TGI (SK-MEL-2 melanoma): > 100 µM
TGI (HCC-2998 colon): > 100 µM
TGI (MDA-N): > 100 µM
TGI (DU-145 prostate): > 100 µM
TGI (IGROV1 ovarian): > 100 µM
TGI (UO-31 renal): > 100 µM
